Patent publication US11071731B2, “Allosteric modulators of the mu opioid receptor” (Chiromics, LLC, priority 2017, dated 2021)

Experiments:
mu opioid receptor (MOR) [1] = target: T1, mu opioid receptor (MOR) (Homo sapiens, UniProt P35372); assay: PathHunter β-arrestin recruitment assay, PAM mode with EC20 endomorphin-1; type: cell-based; settings: β-arrestin recruitment; for β-arr Max. Resp.: maximal response; for EC50: read-out: β-arr. EC50
Outline: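 Enzyme fragment complementation read-out: β-gal ED fragment fused to receptor, EA fused to β-arrestin, recruitment restoring β-gal activity detected by chemiluminescence. EC50 and percent maximal response derived for each compound.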

mu opioid receptor (MOR) [2] = target: T1, mu opioid receptor (MOR); assay: Hit Hunter cAMP signaling assay (adenylyl cyclase inhibition), PAM mode with EC20 endomorphin-1; type: cell-based; settings: for cAMP Max. Resp.: maximal response
[3] = adenylyl cyclase inhibition, read-out: cAMP EC50
[4] = cAMP EC50, adenylyl cyclase inhibition

T1 sequence (P35372 whole entry, the tested form may be a part): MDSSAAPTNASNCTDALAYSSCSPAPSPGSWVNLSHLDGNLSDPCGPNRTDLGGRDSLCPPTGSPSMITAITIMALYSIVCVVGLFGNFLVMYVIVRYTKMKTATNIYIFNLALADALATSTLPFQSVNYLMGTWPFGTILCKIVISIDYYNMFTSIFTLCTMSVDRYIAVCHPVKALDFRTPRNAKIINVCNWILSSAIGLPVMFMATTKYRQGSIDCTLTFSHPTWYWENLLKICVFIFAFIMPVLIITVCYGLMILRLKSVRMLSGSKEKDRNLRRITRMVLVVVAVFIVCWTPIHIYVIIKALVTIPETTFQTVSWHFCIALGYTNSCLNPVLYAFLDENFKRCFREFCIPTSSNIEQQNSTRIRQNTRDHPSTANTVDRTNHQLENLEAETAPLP

SMILES	β-arr Max. Resp. (mu opioid receptor (MOR) [1])	EC50 (mu opioid receptor (MOR) [1]) [nM]	EC50 (mu opioid receptor (MOR) [2]; [3]) [nM]	cAMP Max. Resp. (mu opioid receptor (MOR) [2]; adenylyl cyclase inhibition)	EC50 (mu opioid receptor (MOR) [2]; [4]) [nM]
Fc1cnc(Cl)nc1N1CC(C(F)(F)F)CC1c1cccc(C(F)(F)F)c1 (centres unmarked) [compound 473]	E (E represents a maximal response of 40-60%)	> 2100	> 2100	D (D represents a maximal response of < 40%)	–
COc1ccc(N2CCCCC2c2cccc(C(F)(F)F)n2)cc1 (centres unmarked) [compound 474]	D (D represents a maximal response of < 40%)	> 2100	> 2100	D (D represents a maximal response of < 40%)	–
Fc1ccc(N2CCCCC2c2ccc(F)c(Cl)c2)cc1 (centres unmarked) [compound 475]	F (F represents a maximal response of > 60%)	> 2100	–	D (D represents a maximal response of < 40%)	> 2100
Fc1ccc(C2CC(C(F)(F)F)CN2c2nc(Cl)ncc2F)cc1Cl (centres unmarked) [compound 476]	E (E represents a maximal response of 40-60%)	> 2100	> 2100	D (D represents a maximal response of < 40%)	–
COC(=O)c1ccc(N2CCCCC2c2ccc(F)c(Cl)c2)cc1 (centres unmarked) [compound 477]	F (F represents a maximal response of > 60%)	> 2100	–	D (D represents a maximal response of < 40%)	> 2100
COC(=O)c1ccc(N2CCCCC2c2cccc(C(F)(F)F)n2)cc1 (centres unmarked) [compound 478]	F (F represents a maximal response of > 60%)	> 2100	–	D (D represents a maximal response of < 40%)	> 2100
Fc1ccc(C2CCCCN2c2cccnc2N2CCOCC2)cc1Cl (centres unmarked) [compound 479]	F (F represents a maximal response of > 60%)	> 2100	> 2100	D (D represents a maximal response of < 40%)	–
Cc1nccc(N2CCCCC2c2ccc(F)c(Cl)c2)n1 (centres unmarked) [compound 480]	D (D represents a maximal response of < 40%)	> 2100	–	D (D represents a maximal response of < 40%)	> 2100
Fc1cnc(Cl)nc1N1CC(F)CC1c1cccc(C(F)(F)F)n1 (centres unmarked) [compound 481]	D (D represents a maximal response of < 40%)	> 2100	> 2100	D (D represents a maximal response of < 40%)	–
Fc1cnc(Cl)nc1N1CC(F)(F)CC1c1cccc(C(F)(F)F)n1 (centres unmarked) [compound 482]	D (D represents a maximal response of < 40%)	> 2100	> 2100	D (D represents a maximal response of < 40%)	–
COc1ccc(C2CCCCN2S(=O)(=O)c2ccn(C)n2)cc1Br (centres unmarked) [compound 483]	D (D represents a maximal response of < 40%)	> 2100	–	D (D represents a maximal response of < 40%)	> 2100
